Legend:
Serine protease 1 [1] = target: T1, Serine protease 1 (Homo sapiens, UniProt P07477); assay: In vitro inhibitory activity against Human trypsin
Plasminogen [2] = target: T2, Plasminogen (Homo sapiens, UniProt P00747); assay: In vitro inhibitory activity against plasmin
Prothrombin [3] = target: T3, Prothrombin (Homo sapiens, UniProt P00734); assay: In vitro inhibitory activity against Thrombin (FIIa)
Coagulation factor X [4] = target: T4, Coagulation factor X (Homo sapiens, UniProt P00742); assay: Inhibitory activity against Coagulation factor X
Target sequence in this assay (P00742 41-179 limits assumed): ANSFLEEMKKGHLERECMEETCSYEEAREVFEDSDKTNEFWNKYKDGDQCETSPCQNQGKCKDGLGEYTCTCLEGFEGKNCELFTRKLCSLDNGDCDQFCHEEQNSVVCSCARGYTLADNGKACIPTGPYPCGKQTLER
Target sequence in this assay (P00742 235-488 limits assumed): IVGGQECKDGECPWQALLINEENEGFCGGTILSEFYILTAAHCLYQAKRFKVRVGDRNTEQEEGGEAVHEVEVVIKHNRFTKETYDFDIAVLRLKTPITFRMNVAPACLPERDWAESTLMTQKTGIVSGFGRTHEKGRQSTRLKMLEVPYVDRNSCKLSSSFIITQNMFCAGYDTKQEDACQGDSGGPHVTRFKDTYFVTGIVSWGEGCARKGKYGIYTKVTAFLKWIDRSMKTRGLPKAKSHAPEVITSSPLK

Plasminogen [5] = target: T2, Plasminogen; assay: In vitro inhibitory activity against plasmin; inactive
Serine protease 1 [6] = target: T1, Serine protease 1; assay: In vitro inhibitory activity against Human trypsin; inactive
Coagulation factor X [7] = target: T4, Coagulation factor X; assay: In vitro inhibitory activity against prothrombinase (PTase) complex
Target sequence in this assay (P00742 whole entry): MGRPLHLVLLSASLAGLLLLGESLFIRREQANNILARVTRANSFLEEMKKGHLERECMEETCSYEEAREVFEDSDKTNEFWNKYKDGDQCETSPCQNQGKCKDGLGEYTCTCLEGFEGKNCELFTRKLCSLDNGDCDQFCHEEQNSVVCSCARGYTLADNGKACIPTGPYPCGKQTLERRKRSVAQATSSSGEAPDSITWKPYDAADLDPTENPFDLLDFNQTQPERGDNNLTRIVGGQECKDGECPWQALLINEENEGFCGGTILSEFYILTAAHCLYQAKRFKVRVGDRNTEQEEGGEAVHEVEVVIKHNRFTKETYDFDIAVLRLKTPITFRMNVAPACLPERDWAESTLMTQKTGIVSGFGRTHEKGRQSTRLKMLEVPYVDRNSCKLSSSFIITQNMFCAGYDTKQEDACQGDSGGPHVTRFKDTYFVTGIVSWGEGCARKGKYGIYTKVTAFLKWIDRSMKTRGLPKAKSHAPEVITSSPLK

Prothrombin [8] = target: T3, Prothrombin; assay: In vitro inhibitory activity against Thrombin (FIIa); inactive

T1 sequence (P07477 whole entry): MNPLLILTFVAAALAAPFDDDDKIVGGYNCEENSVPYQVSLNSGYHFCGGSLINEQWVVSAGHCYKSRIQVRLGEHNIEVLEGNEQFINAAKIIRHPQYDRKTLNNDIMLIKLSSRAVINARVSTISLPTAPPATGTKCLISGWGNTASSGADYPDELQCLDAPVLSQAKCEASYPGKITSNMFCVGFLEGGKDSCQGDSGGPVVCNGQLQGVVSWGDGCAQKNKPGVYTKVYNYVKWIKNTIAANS
T2 sequence (P00747 97-580 limits assumed): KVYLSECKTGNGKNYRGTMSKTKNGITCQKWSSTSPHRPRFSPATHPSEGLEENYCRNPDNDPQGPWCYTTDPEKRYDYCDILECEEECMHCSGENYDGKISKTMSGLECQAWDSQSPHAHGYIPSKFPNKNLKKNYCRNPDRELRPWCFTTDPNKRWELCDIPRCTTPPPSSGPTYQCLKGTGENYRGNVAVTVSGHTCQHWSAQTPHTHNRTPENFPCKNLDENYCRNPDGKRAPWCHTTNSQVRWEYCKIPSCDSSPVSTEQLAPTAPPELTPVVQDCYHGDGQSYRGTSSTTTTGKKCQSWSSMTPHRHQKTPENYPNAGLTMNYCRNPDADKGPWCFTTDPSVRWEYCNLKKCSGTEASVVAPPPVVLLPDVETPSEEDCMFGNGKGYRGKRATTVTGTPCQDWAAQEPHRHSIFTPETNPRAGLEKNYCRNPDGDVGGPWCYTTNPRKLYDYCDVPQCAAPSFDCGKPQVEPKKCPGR
T2 sequence (P00747 581-810 limits assumed): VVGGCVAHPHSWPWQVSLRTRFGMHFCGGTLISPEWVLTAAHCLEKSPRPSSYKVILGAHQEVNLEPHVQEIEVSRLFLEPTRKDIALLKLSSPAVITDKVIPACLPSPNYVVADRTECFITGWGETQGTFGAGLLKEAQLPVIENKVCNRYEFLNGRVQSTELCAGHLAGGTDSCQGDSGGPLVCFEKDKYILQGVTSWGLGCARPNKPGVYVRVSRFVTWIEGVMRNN

Structure (SMILES) | IC50 (Serine protease 1 [1]) | IC50 (Plasminogen [2]) | IC50 (Prothrombin [3]) | IC50 (Coagulation factor X [4]) | IC50 (Plasminogen [5]) | IC50 (Serine protease 1 [6]) | IC50 (Coagulation factor X [7]) | IC50 (Prothrombin [8])
CCCCCNC(=O)C(=O)[C@H](CC1CCCCC1)NC(=O)CN(C)C(=O)[C@@H](CCCN=C(N)N)NS(=O)(=O)Cc1ccccc1 | 0.163 µM | > 2.5 µM | 3.83 µM | 0.00187 µM | – | – | – | –
CCOC(=O)CNC(=O)C(=O)[C@H](CC1CCCCC1)NC(=O)CN(C)C(=O)[C@@H](CCCN=C(N)N)NS(=O)(=O)Cc1ccccc1 | – | – | > 2.5 µM | 0.00213 µM | Not Active | Not Active | – | –
CCOC(=O)CNC(=O)C(=O)[C@H](Cc1ccccc1)NC(=O)CN(C)C(=O)[C@@H](CCCN=C(N)N)NS(=O)(=O)Cc1ccccc1 | > 2.5 µM | – | > 2.5 µM | 0.0066 µM | Not Active | – | 0.0251 µM | –
CCOC(=O)CNC(=O)C(=O)[C@H](Cc1ccc(OC(C)(C)C)cc1)NC(=O)CN(C)C(=O)[C@@H](CCCN=C(N)N)NS(=O)(=O)Cc1ccccc1.O=C(O)C(F)(F)F | – | > 2.5 µM | – | 0.246 µM | – | Not Active | – | Not Active
CN(CC(=O)N[C@H]1CCCC(C(=N)N)C1O)C(=O)[C@@H](CCCN=C(N)N)NS(=O)(=O)Cc1ccccc1 (some centres undefined) | 0.0747 µM | 1.2 µM | > 2.5 µM | 0.00086 µM | – | – | 0.0034 µM | –
CCOC(=O)CNC(=O)C(=O)[C@H](Cc1ccc(O)cc1)NC(=O)CN(C)C(=O)[C@@H](CCCN=C(N)N)NS(=O)(=O)Cc1ccccc1.O=C(O)C(F)(F)F | – | – | > 2.5 µM | 0.00763 µM | Not Active | Not Active | 0.0292 µM | –
CN(CC(=O)N[C@@H](Cc1ccccc1)C(=O)C(=O)NCC(=O)NCCc1ccccc1)C(=O)[C@@H](CCCN=C(N)N)NS(=O)(=O)Cc1ccccc1.O=C(O)C(F)(F)F | – | – | > 2.5 µM | 0.00789 µM | Not Active | Not Active | 0.0259 µM | –
CN(CC(=O)N[C@@H](CC1CCCCC1)C(=O)C(=O)NCCc1ccccc1)C(=O)[C@@H](CCCN=C(N)N)NS(=O)(=O)Cc1ccccc1 | > 2.5 µM | – | 2.21 µM | 0.0132 µM | Not Active | – | – | –
CN(CC(=O)N[C@@H](CC1CCCCC1)C(=O)C(=O)NCc1ccc2c(c1)OCO2)C(=O)[C@@H](CC/N=C(\N)N[N+](=O)[O-])NS(=O)(=O)Cc1ccccc1 | – | – | > 2.5 µM | 0.0464 µM | Not Active | Not Active | – | –
CN(CC(=O)N[C@@H](CC1CCCCC1)C(=O)C(=O)NCc1ccccc1)C(=O)[C@@H](CCCN=C(N)N)NS(=O)(=O)Cc1ccccc1 | 2.5 µM | > 2.5 µM | 1.96 µM | 0.00326 µM | – | – | – | –

Source: ChEMBL document CHEMBL1132777, “Novel, potent and selective chimeric FXa inhibitors featuring hydrophobic P1-ketoamide moieties” (Bioorg Med Chem Lett, 2000)
